Data from patent publication US20050202465A1, “Thymidylate synthase gene and metastasis” (The Johns Hopkins University, priority 2004, published 2005).

Test system: colorectal cancer metastases
Test: Overall survival after surgical removal of metastases in 5-FU treated colorectal cancer patients, by TYMS amplification status
Type: in vivo, human
Details: for Median survival after metastasis removal / Survival range after metastasis removal: previous treatment 5-FU
Description: Tissue samples, including normal tissues, primary tumors, and metastases were obtained from colorectal cancer patients undergoing surgery at the Johns Hopkins Hospital between 1990 and 2002. A diagnosis of colorectal cancer was established by histological examination of surgical specimens and clinical information was retrospectively retrieved from patient records. Acquisition of tissue specimens and examination of clinical records was approved by an institutional review board and was performed in accordance with HIPAA regulations. Metastatic samples were obtained from complete resections, debulking, or biopsies of metastatic lesions.
Overall survival was calculated from the date of the surgical excision of the metastasis to the date of death or last follow-up and computed by Kaplan-Meier method. Data were censored when patients were lost to follow-up.
A corollary of this idea is that such patients would fare worse than those without TYMS amplification, as post-surgical therapy of patients with metastatic cancers often involves retreatment with 5-FU plus other agents (see Introduction). To evaluate this possibility, we compared the survival of patients with metastatic lesions that had previously been treated with 5-FU, segregated according to TYMS amplification status. Although the average age, stage at initial diagnosis, and metastasis size and location were similar between patients with and without increased TYMS gene copies, the median overall survival following surgical removal of metastases among patients with TYMS gene amplification was 329 days, as compared with 1021 days for patients without TYMS amplification (Table 2, p<0.01, t-Test). […] These differences were also significant in Kaplan-Meier analyses (FIG. 4).

[1] = Group A (n = 6), TYMS amplified in metastasis
[2] = Group B (n = 21), TYMS not amplified in metastasis

How did the “Relative risk of death, patients with TYMS amplification vs without” value (5-FU treated patients, proportional hazard model, 95% confidence interval 1.06-11.4, p<0.05) turn out when `O=c1[nH]cc(F)c(=O)[nH]1` [5-FU, 5-fluorouracil] was run?
The value was 3.5 fold.

And the “Median survival after metastasis removal” value [1]?
The value was 329 days.

And the “Survival range after metastasis removal” value [1]?
The value was “(109-708 days)”.

And the “Median survival after metastasis removal” value [2]?
The value was 1021 days.

And the “Survival range after metastasis removal” value [2]?
The value was “(255-3790 days)”.
